From article PMC10528299, “Targeting FAK/PYK2 with SJP1602 for Anti-Tumor Activity in Triple-Negative Breast Cancer” (Current Issues in Molecular Biology, 2023)

Assays:
Assay in all cases: Eurofins kinase profiling
Type in all cases: biochemical
[1] = target: T1, Snk(h) (Homo sapiens, UniProt Q9NYY3); conditions: read-out: residual kinase activity Snk(h)
T1 construct: purchased Eurofins KinaseProfiler
Method in brief: (§1)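 Single-point screen at 1 µM compound; radiometric read-out of kinase activity using radiolabeled phosphate, per standard KinaseProfiler protocol.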

[2] = target: T2, IKKα(h) (Homo sapiens, UniProt O15111); conditions: read-out: residual kinase activity IKKα(h)
T2 construct: purchased Eurofins KinaseProfiler
T2 sequence (O15111 1-745): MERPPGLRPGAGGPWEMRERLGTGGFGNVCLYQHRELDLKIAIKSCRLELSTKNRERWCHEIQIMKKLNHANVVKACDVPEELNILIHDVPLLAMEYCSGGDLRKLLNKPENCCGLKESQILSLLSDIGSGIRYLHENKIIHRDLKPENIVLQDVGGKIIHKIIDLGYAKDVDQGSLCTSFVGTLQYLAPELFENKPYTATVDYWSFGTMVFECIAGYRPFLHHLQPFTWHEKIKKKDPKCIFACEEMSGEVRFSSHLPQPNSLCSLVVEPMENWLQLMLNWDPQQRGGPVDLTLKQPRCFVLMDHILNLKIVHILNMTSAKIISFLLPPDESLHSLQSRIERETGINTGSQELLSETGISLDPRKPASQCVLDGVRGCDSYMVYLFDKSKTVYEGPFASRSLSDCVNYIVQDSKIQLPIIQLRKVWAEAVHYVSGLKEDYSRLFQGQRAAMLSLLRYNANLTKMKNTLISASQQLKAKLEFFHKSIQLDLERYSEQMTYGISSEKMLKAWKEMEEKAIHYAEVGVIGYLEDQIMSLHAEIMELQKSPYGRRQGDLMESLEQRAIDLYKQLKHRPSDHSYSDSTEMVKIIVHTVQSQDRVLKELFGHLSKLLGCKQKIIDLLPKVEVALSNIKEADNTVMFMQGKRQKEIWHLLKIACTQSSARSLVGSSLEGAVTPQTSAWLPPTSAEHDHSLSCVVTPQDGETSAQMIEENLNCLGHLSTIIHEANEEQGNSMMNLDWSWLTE
Method in brief: as §1

[3] = target: T3, Wee1(h) (Homo sapiens, UniProt P30291); conditions: read-out: residual kinase activity Wee1(h)
T3 construct: purchased Eurofins KinaseProfiler
Method in brief: as §1

[4] = target: T4, MEK1(h) (Homo sapiens, UniProt Q02750); conditions: read-out: residual kinase activity MEK1(h)
T4 construct: purchased Eurofins KinaseProfiler
Method in brief: as §1

[5] = target: T5, EGFR(L858R)(h) (Homo sapiens, UniProt P00533, L858R); conditions: read-out: residual kinase activity EGFR(L858R)(h)
T5 construct: purchased Eurofins KinaseProfiler
Method in brief: as §1

[6] = target: T6, TAK1(h) (Homo sapiens, UniProt O43318); conditions: read-out: residual kinase activity TAK1(h)
T6 construct: purchased Eurofins KinaseProfiler
T6 sequence (O43318 1-303 limits assumed): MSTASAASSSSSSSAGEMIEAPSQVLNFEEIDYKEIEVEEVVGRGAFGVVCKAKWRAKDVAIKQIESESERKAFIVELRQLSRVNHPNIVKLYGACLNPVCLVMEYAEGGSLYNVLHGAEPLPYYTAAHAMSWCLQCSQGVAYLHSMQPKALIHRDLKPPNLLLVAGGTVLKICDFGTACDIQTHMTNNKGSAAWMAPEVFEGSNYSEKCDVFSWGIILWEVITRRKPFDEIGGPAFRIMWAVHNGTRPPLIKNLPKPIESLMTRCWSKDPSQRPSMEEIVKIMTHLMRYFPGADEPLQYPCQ
Method in brief: as §1

[7] = target: T7, PI3 Kinase (p120g)(h) (Homo sapiens, UniProt P48736); conditions: read-out: residual kinase activity PI3 Kinase (p120g)(h)
T7 construct: purchased Eurofins KinaseProfiler
Method in brief: as §1

[8] = target: T8, Bmx(h) (Homo sapiens, UniProt P51813); conditions: read-out: residual kinase activity Bmx(h)
T8 construct: purchased Eurofins KinaseProfiler
T8 sequence (P51813 1-675): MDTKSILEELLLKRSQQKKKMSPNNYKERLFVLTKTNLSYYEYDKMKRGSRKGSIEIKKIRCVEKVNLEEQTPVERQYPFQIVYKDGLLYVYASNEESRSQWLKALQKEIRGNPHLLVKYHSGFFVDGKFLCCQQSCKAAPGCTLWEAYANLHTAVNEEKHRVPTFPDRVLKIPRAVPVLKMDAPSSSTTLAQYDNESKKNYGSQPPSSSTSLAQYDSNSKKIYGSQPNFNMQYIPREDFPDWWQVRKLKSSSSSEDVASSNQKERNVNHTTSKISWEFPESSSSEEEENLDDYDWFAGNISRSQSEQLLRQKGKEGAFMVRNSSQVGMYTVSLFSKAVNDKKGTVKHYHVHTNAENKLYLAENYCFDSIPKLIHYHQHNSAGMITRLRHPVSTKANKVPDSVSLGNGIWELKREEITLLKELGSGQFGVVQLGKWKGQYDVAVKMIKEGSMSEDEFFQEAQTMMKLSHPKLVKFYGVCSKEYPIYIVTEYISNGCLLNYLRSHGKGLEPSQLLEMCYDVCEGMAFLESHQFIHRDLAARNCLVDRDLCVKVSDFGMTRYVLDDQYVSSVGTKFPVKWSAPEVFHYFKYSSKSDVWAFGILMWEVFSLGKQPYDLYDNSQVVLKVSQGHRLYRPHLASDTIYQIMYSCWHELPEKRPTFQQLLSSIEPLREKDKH
Method in brief: as §1

[9] = target: T9, Ros(h) (Homo sapiens, UniProt P08922); conditions: read-out: residual kinase activity Ros(h)
T9 construct: purchased Eurofins KinaseProfiler
Method in brief: as §1

[10] = target: T10, EGFR(h) (Homo sapiens, UniProt P00533); conditions: read-out: residual kinase activity EGFR(h)
T10 construct: purchased Eurofins KinaseProfiler
Method in brief: as §1

[11] = target: T11, EphA2(h) (Homo sapiens, UniProt P29317); conditions: read-out: residual kinase activity EphA2(h)
T11 construct: purchased Eurofins KinaseProfiler
Method in brief: as §1

[12] = target: T12, Ret(h) (Homo sapiens, UniProt P07949); conditions: read-out: residual kinase activity Ret(h)
T12 construct: purchased Eurofins KinaseProfiler
Method in brief: as §1

T5 sequence (P00533 25-1210 L858R): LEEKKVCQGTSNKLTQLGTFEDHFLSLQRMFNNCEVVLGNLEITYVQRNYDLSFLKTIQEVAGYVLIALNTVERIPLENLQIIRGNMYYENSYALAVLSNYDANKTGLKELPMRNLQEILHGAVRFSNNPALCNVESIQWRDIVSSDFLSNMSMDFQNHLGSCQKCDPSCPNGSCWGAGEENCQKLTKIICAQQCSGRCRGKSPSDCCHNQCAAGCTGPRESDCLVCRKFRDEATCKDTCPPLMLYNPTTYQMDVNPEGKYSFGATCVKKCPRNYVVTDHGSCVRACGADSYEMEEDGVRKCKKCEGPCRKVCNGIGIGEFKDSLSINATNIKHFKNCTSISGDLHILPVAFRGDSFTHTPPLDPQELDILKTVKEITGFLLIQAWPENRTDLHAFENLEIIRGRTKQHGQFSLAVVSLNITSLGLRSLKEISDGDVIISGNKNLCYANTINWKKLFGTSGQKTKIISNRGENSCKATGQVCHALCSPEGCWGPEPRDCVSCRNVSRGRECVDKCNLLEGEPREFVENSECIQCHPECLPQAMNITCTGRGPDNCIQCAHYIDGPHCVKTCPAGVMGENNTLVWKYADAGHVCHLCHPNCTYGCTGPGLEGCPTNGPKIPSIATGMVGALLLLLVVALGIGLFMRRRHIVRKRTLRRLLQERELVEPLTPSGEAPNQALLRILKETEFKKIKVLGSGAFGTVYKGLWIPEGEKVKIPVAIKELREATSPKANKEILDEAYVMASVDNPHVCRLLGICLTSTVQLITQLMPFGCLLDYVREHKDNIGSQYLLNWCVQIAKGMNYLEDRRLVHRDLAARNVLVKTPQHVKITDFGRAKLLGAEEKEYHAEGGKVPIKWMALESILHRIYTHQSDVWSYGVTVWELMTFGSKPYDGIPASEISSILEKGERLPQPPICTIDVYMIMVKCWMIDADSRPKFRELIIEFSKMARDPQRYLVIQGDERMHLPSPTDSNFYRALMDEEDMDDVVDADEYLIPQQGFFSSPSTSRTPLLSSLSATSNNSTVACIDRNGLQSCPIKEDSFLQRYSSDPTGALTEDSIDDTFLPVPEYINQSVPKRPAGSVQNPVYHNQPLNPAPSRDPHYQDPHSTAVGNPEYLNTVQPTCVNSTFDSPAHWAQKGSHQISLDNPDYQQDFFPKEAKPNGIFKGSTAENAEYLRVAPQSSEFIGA
T4 sequence (Q02750 whole entry): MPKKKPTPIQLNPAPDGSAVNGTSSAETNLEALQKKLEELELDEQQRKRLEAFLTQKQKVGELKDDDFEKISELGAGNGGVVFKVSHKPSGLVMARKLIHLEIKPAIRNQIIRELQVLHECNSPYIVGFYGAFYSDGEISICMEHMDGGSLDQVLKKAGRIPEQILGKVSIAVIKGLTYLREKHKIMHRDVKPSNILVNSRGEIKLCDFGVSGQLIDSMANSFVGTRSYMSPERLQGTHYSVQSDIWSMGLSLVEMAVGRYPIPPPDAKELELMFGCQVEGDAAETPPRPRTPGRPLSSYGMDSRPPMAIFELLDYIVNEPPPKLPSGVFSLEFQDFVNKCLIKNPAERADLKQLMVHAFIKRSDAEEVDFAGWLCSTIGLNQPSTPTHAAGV
T11 sequence (P29317 24-976): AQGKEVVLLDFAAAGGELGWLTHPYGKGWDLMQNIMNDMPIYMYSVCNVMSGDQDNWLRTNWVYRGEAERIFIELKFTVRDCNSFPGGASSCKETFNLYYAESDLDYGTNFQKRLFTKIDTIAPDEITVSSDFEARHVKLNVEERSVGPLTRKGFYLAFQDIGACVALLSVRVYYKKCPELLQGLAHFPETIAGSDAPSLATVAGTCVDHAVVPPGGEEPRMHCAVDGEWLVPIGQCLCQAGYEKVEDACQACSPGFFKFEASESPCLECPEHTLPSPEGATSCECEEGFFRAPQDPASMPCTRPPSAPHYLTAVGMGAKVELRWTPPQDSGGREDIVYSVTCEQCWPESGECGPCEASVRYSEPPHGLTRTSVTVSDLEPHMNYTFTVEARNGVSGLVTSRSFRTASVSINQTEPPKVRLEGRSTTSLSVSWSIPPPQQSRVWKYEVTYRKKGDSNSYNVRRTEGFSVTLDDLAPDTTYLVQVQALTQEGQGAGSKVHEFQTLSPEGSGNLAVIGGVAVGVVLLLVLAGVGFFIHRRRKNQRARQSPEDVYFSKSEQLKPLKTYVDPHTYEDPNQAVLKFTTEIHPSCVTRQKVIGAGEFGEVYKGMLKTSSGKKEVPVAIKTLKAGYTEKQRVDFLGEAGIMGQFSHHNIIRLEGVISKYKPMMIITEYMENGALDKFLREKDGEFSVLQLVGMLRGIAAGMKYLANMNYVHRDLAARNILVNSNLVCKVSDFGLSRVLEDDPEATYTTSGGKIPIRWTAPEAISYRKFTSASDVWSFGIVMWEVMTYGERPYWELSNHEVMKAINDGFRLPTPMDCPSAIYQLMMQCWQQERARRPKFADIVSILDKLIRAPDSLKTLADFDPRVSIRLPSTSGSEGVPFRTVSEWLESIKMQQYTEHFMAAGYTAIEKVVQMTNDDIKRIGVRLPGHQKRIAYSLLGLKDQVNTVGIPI
T12 sequence (P07949 29-1114): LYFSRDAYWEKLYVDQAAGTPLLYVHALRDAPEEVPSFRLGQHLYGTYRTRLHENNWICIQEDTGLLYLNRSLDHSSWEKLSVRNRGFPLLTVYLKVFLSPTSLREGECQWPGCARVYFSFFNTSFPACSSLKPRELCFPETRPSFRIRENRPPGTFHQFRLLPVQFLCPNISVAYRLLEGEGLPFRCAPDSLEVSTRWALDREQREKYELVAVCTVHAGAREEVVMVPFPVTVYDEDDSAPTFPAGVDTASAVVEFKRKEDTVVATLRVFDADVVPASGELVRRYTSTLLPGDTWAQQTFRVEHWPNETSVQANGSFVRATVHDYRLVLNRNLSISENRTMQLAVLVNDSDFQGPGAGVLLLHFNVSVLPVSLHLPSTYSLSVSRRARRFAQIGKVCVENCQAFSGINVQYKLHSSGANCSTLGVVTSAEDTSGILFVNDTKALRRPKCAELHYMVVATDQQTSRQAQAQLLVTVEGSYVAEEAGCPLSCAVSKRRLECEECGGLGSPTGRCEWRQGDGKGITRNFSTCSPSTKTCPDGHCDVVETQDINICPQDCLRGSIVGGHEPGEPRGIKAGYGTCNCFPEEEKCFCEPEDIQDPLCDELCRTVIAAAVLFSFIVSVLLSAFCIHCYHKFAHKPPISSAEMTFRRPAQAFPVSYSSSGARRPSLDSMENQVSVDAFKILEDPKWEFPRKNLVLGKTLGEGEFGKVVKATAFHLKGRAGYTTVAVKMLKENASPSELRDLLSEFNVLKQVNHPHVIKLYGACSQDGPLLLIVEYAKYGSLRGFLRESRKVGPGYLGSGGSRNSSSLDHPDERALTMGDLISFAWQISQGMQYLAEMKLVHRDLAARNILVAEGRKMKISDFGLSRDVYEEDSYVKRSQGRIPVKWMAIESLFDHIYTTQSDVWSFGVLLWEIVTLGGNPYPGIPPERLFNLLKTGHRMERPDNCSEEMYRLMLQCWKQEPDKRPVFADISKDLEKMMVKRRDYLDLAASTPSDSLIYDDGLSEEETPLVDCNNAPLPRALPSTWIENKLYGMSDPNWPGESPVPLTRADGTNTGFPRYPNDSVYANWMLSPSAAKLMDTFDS
T1 sequence (Q9NYY3 whole entry): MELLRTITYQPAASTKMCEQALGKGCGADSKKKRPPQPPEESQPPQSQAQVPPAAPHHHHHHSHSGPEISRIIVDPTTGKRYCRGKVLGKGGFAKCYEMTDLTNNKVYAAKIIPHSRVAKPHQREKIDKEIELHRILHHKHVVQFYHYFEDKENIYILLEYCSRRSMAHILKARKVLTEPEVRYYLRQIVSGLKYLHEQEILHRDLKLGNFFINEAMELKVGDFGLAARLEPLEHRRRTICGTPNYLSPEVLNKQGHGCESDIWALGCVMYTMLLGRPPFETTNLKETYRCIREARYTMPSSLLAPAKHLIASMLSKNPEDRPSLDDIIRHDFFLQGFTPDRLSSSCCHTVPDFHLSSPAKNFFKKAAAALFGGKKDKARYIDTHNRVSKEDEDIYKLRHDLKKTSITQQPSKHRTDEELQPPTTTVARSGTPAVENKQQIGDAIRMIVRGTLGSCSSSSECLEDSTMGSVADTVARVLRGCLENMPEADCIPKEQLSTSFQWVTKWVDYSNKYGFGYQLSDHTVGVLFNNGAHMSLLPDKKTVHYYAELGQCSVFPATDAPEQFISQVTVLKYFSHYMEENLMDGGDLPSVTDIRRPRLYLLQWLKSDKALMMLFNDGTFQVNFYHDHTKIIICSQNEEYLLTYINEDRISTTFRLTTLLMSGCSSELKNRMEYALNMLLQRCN
T3 sequence (P30291 whole entry): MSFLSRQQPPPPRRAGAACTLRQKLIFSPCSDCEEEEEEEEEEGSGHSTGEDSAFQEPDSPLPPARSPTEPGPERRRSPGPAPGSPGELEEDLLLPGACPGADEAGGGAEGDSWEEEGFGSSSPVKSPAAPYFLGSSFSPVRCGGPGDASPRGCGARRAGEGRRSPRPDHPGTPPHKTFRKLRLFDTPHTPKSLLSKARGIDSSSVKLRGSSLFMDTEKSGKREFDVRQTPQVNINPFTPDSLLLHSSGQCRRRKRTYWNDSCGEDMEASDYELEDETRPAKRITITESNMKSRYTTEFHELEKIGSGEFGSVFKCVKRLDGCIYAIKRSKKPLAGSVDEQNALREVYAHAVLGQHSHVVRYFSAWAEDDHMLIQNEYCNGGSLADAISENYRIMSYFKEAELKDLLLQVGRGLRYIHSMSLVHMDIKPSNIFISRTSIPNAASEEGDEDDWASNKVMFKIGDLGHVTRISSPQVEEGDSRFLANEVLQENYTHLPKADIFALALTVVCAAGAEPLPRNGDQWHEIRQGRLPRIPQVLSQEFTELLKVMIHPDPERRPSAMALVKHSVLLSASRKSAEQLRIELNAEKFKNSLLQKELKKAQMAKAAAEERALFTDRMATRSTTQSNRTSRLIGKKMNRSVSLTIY

CNC(=O)c1ccc(Nc2ncc(C(F)(F)F)c(NCc3nccnc3N(C)S(C)(=O)=O)n2)cc1 [VS-6063, Defactinib]
remaining activity at 1 µM [1]: 64% | remaining activity at 1 µM [2]: 125% | remaining activity at 1 µM [3]: 72% | remaining activity at 1 µM [4]: 93% | remaining activity at 1 µM [5]: 134% | remaining activity at 1 µM [6]: 71% | remaining activity at 1 µM [7]: 104% | remaining activity at 1 µM [8]: 47% | remaining activity at 1 µM [9]: 106% | remaining activity at 1 µM [10]: 105% | remaining activity at 1 µM [11]: 91% | remaining activity at 1 µM [12]: 39%

CONC(=O)c1ccccc1Nc1cc(Nc2cc(C)nn2C(C)C)ncc1Cl [GSK2256098]
remaining activity at 1 µM [1]: 113% | remaining activity at 1 µM [2]: 93% | remaining activity at 1 µM [3]: 88% | remaining activity at 1 µM [4]: 101% | remaining activity at 1 µM [5]: 33% | remaining activity at 1 µM [6]: 95% | remaining activity at 1 µM [7]: 101% | remaining activity at 1 µM [8]: 105% | remaining activity at 1 µM [9]: 103% | remaining activity at 1 µM [10]: 98% | remaining activity at 1 µM [11]: 92% | remaining activity at 1 µM [12]: 117%

CNC(=O)c1cccc(C)c1Nc1nc(Nc2ccc(N3CCN(C4C5CC6CC4CC(O)(C6)C5)CC3)cc2OC)ncc1C(F)(F)F (stereo not drawn) [SJP1602, 2-((2-((4-(4-((2s,5r)-5-hydroxyadamantan-2-yl)piperazin-1-yl)-2-methoxyphenyl)amino)-5-(trifluoromethyl)pyrimidin-4-yl)amino)-N,3-dimethylbenzamide]
remaining activity at 1 µM [1]: 105% | remaining activity at 1 µM [2]: 130% | remaining activity at 1 µM [3]: 101% | remaining activity at 1 µM [4]: 98% | remaining activity at 1 µM [5]: 133% | remaining activity at 1 µM [6]: 113% | remaining activity at 1 µM [7]: 85% | remaining activity at 1 µM [8]: 84% | remaining activity at 1 µM [9]: 104% | remaining activity at 1 µM [10]: 112% | remaining activity at 1 µM [11]: 105% | remaining activity at 1 µM [12]: 111%
